Measurements taken from PubChem BioAssay AID1963440 (Molecular Pharmacology Branch, DTP, NCI, 2024).
“And” between values parts separate entries of the source, which are not always exact repeats. Identical values can stand only once.

Tested on: NCI-H1417 complex spheroids, growth % test/control
Assay: Anticancer human tumor NCI-H1417 cell line growth inhibition [Asc];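 also: spheroids exposed to compounds for 7 days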;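 as to viability, T/C: 100% = DMSO vehicle control wells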
Settings: for viability, T/C: stronger effect = lower value
Method in brief: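 Complex spheroids combining tumor cells with HUVEC endothelial cells and human MSCs, at 37 degrees C, 5% CO2; agents tested alone or combined, half-log dilutions from at or near clinical Cmax, or 10 microM if Cmax unknown.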

[1] = curve of first compound, second compound 0.1 µM
[2] = curve of first compound, second compound 0.316 µM
[3] = curve of first compound, second compound 1 µM
[4] = curve of first compound, second compound 3.16 µM
[5] = curve of first compound, second compound 10 µM
[6] = second compound 0.1 µM, first compound 0.0316 µM
[7] = second compound 0.1 µM, first compound 0.1 µM
[8] = second compound 0.1 µM, first compound 0.316 µM
[9] = second compound 0.1 µM, first compound 1 µM
[10] = second compound 0.1 µM, first compound 3.16 µM
[11] = second compound 0.1 µM, first compound 10 µM
[12] = second compound 0.316 µM, first compound 0.0316 µM
[13] = second compound 0.316 µM, first compound 0.1 µM
[14] = second compound 0.316 µM, first compound 0.316 µM
[15] = second compound 0.316 µM, first compound 1 µM
[16] = second compound 0.316 µM, first compound 3.16 µM
[17] = second compound 0.316 µM, first compound 10 µM
[18] = second compound 1 µM, first compound 0.0316 µM
[19] = second compound 1 µM, first compound 0.1 µM
[20] = second compound 1 µM, first compound 0.316 µM
[21] = second compound 1 µM, first compound 1 µM
[22] = second compound 1 µM, first compound 3.16 µM
[23] = second compound 1 µM, first compound 10 µM
[24] = second compound 3.16 µM, first compound 0.0316 µM
[25] = second compound 3.16 µM, first compound 0.1 µM
[26] = second compound 3.16 µM, first compound 0.316 µM
[27] = second compound 3.16 µM, first compound 1 µM
[28] = second compound 3.16 µM, first compound 3.16 µM
[29] = second compound 3.16 µM, first compound 10 µM
[30] = second compound 10 µM, first compound 0.0316 µM
[31] = second compound 10 µM, first compound 0.1 µM
[32] = second compound 10 µM, first compound 0.316 µM
[33] = second compound 10 µM, first compound 1 µM
[34] = second compound 10 µM, first compound 3.16 µM
[35] = second compound 10 µM, first compound 10 µM

Work on `C#Cc1c(F)ccc2cc(O)cc(-c3ncc4c(N5CC6CCC(C5)N6)nc(OCC56CCCN5CC(F)C6)nc4c3F)c12` (configuration not stated) + Cc1c(S(C)(=O)=O)c(-c2cc(F)cc(N3CCN(c4ccc(NS(=O)(=O)c5ccc(NC(CCN6CCC(C(=O)OCCCP(=O)(O)O)CC6)CSc6ccccc6)c(S(=O)(=O)C(F)(F)F)c5)cc4)CC3)c2)c(-c2ccc(Cl)cc2)n1C(C)C yielded an IC50 [1] of 5740 nM, an IC50 [2] of less than 31.6 nM and an IC50 [3] of less than 31.6 nM. The IC50 [4] was less than 31.6 nM, the IC50 [5] was less than 31.6 nM and the viability, T/C [6] was 72%. It also gave a viability, T/C [7] of 83.9%, a viability, T/C [8] of 71.8% and a viability, T/C [9] of 75.8%. For the same compound, the viability, T/C [10] was 64.7%, the viability, T/C [11] was 35.7% and the viability, T/C [12] was 42.6%. It also gave a viability, T/C [13] of 48%, a viability, T/C [14] of 34.8% and a viability, T/C [15] of 20.9%. It also gave a viability, T/C [16] of 12.9%, a viability, T/C [17] of 5.66% and a viability, T/C [18] of 12%. It also gave a viability, T/C [19] of 10.5%, a viability, T/C [20] of 7.98% and a viability, T/C [21] of 5.31%. The viability, T/C [22] was 3.23%, the viability, T/C [23] was 4.53% and the viability, T/C [24] was 3.15%. The viability, T/C [25] was 2.9%, the viability, T/C [26] was 3.53% and the viability, T/C [27] was 1.96%. The viability, T/C [28] was 1.85%, the viability, T/C [29] was 2.61% and the viability, T/C [30] was 2.05%. It also gave a viability, T/C [31] of 2.06%, a viability, T/C [32] of 2.12% and a viability, T/C [33] of 1.68%. The viability, T/C [34] was 1.15% and the viability, T/C [35] was 2.22%.

`C=C(F)C(=O)N1CCN(c2nc(OCC3CCCN3C)nc3c2CCN(c2cccc4cccc(Cl)c24)C3)CC1CC#N` (configuration not stated) + Cc1c(S(C)(=O)=O)c(-c2cc(F)cc(N3CCN(c4ccc(NS(=O)(=O)c5ccc(NC(CCN6CCC(C(=O)OCCCP(=O)(O)O)CC6)CSc6ccccc6)c(S(=O)(=O)C(F)(F)F)c5)cc4)CC3)c2)c(-c2ccc(Cl)cc2)n1C(C)C showed an IC50 [1] of 1240 nM, an IC50 [2] of less than 31.6 nM and an IC50 [3] of less than 31.6 nM. For the same compound, the IC50 [4] was less than 31.6 nM, the IC50 [5] was less than 31.6 nM and the viability, T/C [6] was 75.7%. The viability, T/C [7] was 80%, the viability, T/C [8] was 67.9% and the viability, T/C [9] was 61.1%. The viability, T/C [10] was 1.57%, the viability, T/C [11] was 0.85% and the viability, T/C [12] was 43.5%. It also gave a viability, T/C [13] of 46%, a viability, T/C [14] of 35.5% and a viability, T/C [15] of 14%. For the same compound, the viability, T/C [16] was 0.94%, the viability, T/C [17] was 0.12% and the viability, T/C [18] was 12.3%. For the same compound, the viability, T/C [19] was 9.05%, the viability, T/C [20] was 5.54% and the viability, T/C [21] was 2.95%. For the same compound, the viability, T/C [22] was 0.15%, the viability, T/C [23] was 0.11% and the viability, T/C [24] was 2.93%. For the same compound, the viability, T/C [25] was 2.78%, the viability, T/C [26] was 2.82% and the viability, T/C [27] was 2.57%. For the same compound, the viability, T/C [28] was 0.11%, the viability, T/C [29] was 0.12% and the viability, T/C [30] was 2.01%. For the same compound, the viability, T/C [31] was 2.86%, the viability, T/C [32] was 3.34% and the viability, T/C [33] was 1.29%. The viability, T/C [34] was 0.21% and the viability, T/C [35] was 0.19%.

In the case of `NC1CCC(NC2CC2c2ccccc2)CC1` (configuration not stated), the viability, T/C (compound 0.000316 µM) is reported as 94.2% and 90.8% and 94.6%, the viability, T/C (compound 0.001 µM) is reported as 91.8% and 89.6% and 93.2% and the viability, T/C (compound 0.00316 µM) is reported as 89.5% and 86.4% and 89.2%. The viability, T/C (compound 0.01 µM) was 83.2% and 78.4% and 87.9%, the viability, T/C (compound 0.0316 µM) was 89% and 84.6% and 88.3% and the viability, T/C (compound 0.1 µM) was 82.3% and 78.4% and 97.6%. The IC50 (curve of compound) was greater than 100 nM.
